Laboratory results reported in patent US4493828A, “Use of thyrotropin releasing hormone and related peptides as poultry growth promotants” (Merck & Co., Inc., priority 1982, dated 1985).

Test system: 4-week-old Hubbard×Hubbard cockerels
Test: Example 2: effect of TRH on growth in 4-week-old male chicks (25 days)
Type: in vivo, chicken
Experimental: Four-week-old Hubbard×Hubbard cockerels were used in this experiment, and average weight was 831.38 g. Synthetic TRH (Beckman Co., CA) was dissolved in saline and given daily by intravenous injection via the brachial vein at 0.1 μg/bird, 1.0 μg/bird, and 10 μg/ bird. Birds were weighed twice a week for 4 weeks. Data were analyzed by least squares of variance, using initial weight as a covariant.

[1] = TRH (high) 10 μg/bird daily intravenous, day 11 after start of treatment
[2] = TRH (high) 10 μg/bird daily intravenous, day 15 after start of treatment
[3] = TRH (high) 10 μg/bird daily intravenous, day 18 after start of treatment
[4] = TRH (high) 10 μg/bird daily intravenous, day 22 after start of treatment
[5] = TRH (high) 10 μg/bird daily intravenous, day 25 after start of treatment
[6] = TRH (low) 0.1 μg/bird daily intravenous, day 4 after start of treatment
[7] = TRH (low) 0.1 μg/bird daily intravenous, day 8 after start of treatment
[8] = TRH (low) 0.1 μg/bird daily intravenous, day 11 after start of treatment
[9] = TRH (low) 0.1 μg/bird daily intravenous, day 15 after start of treatment
[10] = TRH (low) 0.1 μg/bird daily intravenous, day 18 after start of treatment
[11] = TRH (low) 0.1 μg/bird daily intravenous, day 18 after start of treatment, p < 0.1
[12] = TRH (low) 0.1 μg/bird daily intravenous, day 22 after start of treatment
[13] = TRH (low) 0.1 μg/bird daily intravenous, day 22 after start of treatment, p < 0.1
[14] = TRH (low) 0.1 μg/bird daily intravenous, day 25 after start of treatment, p < 0.1
[15] = TRH (med.) 1.0 μg/bird daily intravenous, day 4 after start of treatment
[16] = TRH (med.) 1.0 μg/bird daily intravenous, day 8 after start of treatment
[17] = TRH (med.) 1.0 μg/bird daily intravenous, day 11 after start of treatment
[18] = TRH (med.) 1.0 μg/bird daily intravenous, day 15 after start of treatment
[19] = TRH (med.) 1.0 μg/bird daily intravenous, day 18 after start of treatment
[20] = TRH (med.) 1.0 μg/bird daily intravenous, day 18 after start of treatment, p < 0.1
[21] = TRH (med.) 1.0 μg/bird daily intravenous, day 22 after start of treatment
[22] = TRH (med.) 1.0 μg/bird daily intravenous, day 22 after start of treatment, p < 0.05
[23] = TRH (med.) 1.0 μg/bird daily intravenous, day 25 after start of treatment, p<0.025

With `NC(=O)[C@@H]1CCCN1C(=O)[C@H](Cc1c[nH]cn1)NC(=O)[C@@H]1CCC(=O)N1` [TRH, Glp--His--Pro--NH2] the “body weight, percent increased as compared with control” value (shortened to “body weight, percent increased”) (TRH (high) 10 μg/bird daily intravenous, day 8 after start of treatment) was 0%, the body weight gain [1] was 542.9 ± 20.5 g and the “body weight gain, percent increase as compared with control” value (“body weight gain, percent increase” below) [1] was 0%. For the same compound, the “body weight, least squares mean ± standard error of the mean corrected by initial weight” value [1] was 1381.7 ± 20.3 g, the “body weight, percent increased” value [1] was 0% and the body weight gain [2] was 786.4 ± 20.4 g. The “body weight gain, percent increase” value [2] was 0.9%, the “body weight, least squares mean ± standard error of the mean corrected by initial weight” value [2] was 1627.6 ± 20.4 g and the “body weight, percent increased” value [2] was 0.4%. For the same compound, the body weight gain [3] was 981.5 ± 24.3 g, the “body weight gain, percent increase” value [3] was 2.7% and the “body weight, least squares mean ± standard error of the mean corrected by initial weight” value [3] was 1821.6 ± 24.2 g. The “body weight, percent increased” value [3] was 1.4%, the body weight gain [4] was 1193.2 ± 26.3 g and the “body weight gain, percent increase” value [4] was 2.1%. The “body weight, least squares mean ± standard error of the mean corrected by initial weight” value [4] was 2034.4 ± 26.3 g, the “body weight, percent increased” value [4] was 1.2% and the body weight gain [5] was 1390.9 ± 28.7 g. The “body weight gain, percent increase” value [5] was 2.9%, the “body weight, least squares mean ± standard error of the mean corrected by initial weight” value [5] was 2232.1 ± 28.7 g and the “body weight, percent increased” value [5] was 1.7%. The body weight gain [6] was 167.1 ± 8.4 g, the “body weight gain, percent increase” value [6] was 11.8% and the “body weight, least squares mean ± standard error of the mean corrected by initial weight” value [6] was 1012.2 ± 8.3 g. The “body weight, percent increased” value [6] was “+2.2%”, the body weight gain [7] was 407.6 ± 15.1 g and the “body weight gain, percent increase” value [7] was 7.8%. For the same compound, the “body weight, least squares mean ± standard error of the mean corrected by initial weight” value [7] was 1248 ± 15.0 g, the “body weight, percent increased” value [7] was “+2.4%” and the body weight gain [8] was 585.1 ± 20.5 g. For the same compound, the “body weight gain, percent increase” value [8] was 7.0%, the “body weight, least squares mean ± standard error of the mean corrected by initial weight” value [8] was 1426.4 ± 20.3 g and the “body weight, percent increased” value [8] was “+2.8%”. The body weight gain [9] was 822.9 ± 20.4 g, the “body weight gain, percent increase” value [9] was 5.6% and the “body weight, least squares mean ± standard error of the mean corrected by initial weight” value [9] was 1664.2 ± 20.4 g. For the same compound, the “body weight, percent increased” value [9] was “+2.7%”, the “body weight gain, percent increase” value [10] was 6.3% and the “body weight, percent increased” value [10] was “+3.3%”. The body weight gain [11] was 1015.8 ± 24.3 g, the “body weight, least squares mean ± standard error of the mean corrected by initial weight” value [11] was 1856.9 ± 24.2 g and the “body weight gain, percent increase” value [12] was 6.4%. The “body weight, percent increased” value [12] was 3.7%, the body weight gain [13] was 1243.5 ± 26.3 g and the “body weight, least squares mean ± standard error of the mean corrected by initial weight” value [13] was 2084.7 ± 26.3 g. For the same compound, the “body weight, percent increased” value (TRH (low) 0.1 μg/bird daily intravenous, day 25 after start of treatment) was 3.4%, the “body weight gain, percent increase” value (TRH (low) 0.1 μg/bird daily intravenous, day 25 after start of treatment (end of experiment)) was 5.6% and the body weight gain [14] was 1428.1 g. For the same compound, the “body weight, least squares mean ± standard error of the mean corrected by initial weight” value [14] was 2269.3 g, the body weight gain [15] was 170.1 ± 7.9 g and the “body weight gain, percent increase” value [15] was 13.9%. For the same compound, the “body weight, least squares mean ± standard error of the mean corrected by initial weight” value [15] was 1010.3 ± 7.8 g, the “body weight, percent increased” value [15] was “+2.0%” and the body weight gain [16] was 413.4 ± 14.2 g. For the same compound, the “body weight gain, percent increase” value [16] was 9.3%, the “body weight, least squares mean ± standard error of the mean corrected by initial weight” value [16] was 1254.1 ± 14.2 g and the “body weight, percent increased” value [16] was “+2.8%”. The body weight gain [17] was 573.1 ± 19.3 g, the “body weight gain, percent increase” value [17] was 4.5% and the “body weight, least squares mean ± standard error of the mean corrected by initial weight” value [17] was 1415.4 ± 19.1 g. For the same compound, the “body weight, percent increased” value [17] was “+2.0%”, the body weight gain [18] was 823.2 ± 19.2 g and the “body weight gain, percent increase” value [18] was 5.7%. For the same compound, the “body weight, least squares mean ± standard error of the mean corrected by initial weight” value [18] was 1664.4 ± 19.2 g, the “body weight, percent increased” value [18] was “+2.7%” and the “body weight gain, percent increase” value [19] was 6.6%. The “body weight, percent increased” value [19] was “+3.5%”, the body weight gain [20] was 1018.9 ± 22.9 g and the “body weight, least squares mean ± standard error of the mean corrected by initial weight” value [20] was 1860.1 ± 22.8 g. For the same compound, the “body weight gain, percent increase” value [21] was 7.0%, the “body weight, percent increased” value [21] was 4.1% and the body weight gain [22] was 1250.5 ± 24.8 g. The “body weight, least squares mean ± standard error of the mean corrected by initial weight” value [22] was 2091.7 ± 24.8 g, the “body weight, percent increased” value (TRH (med.) 1.0 μg/bird daily intravenous, day 25 after start of treatment) was 4.6% and the “body weight gain, percent increase” value (TRH (med.) 1.0 μg/bird daily intravenous, day 25 after start of treatment (end of experiment)) was 7.5%. The body weight gain [23] was 1453.2 g and the “body weight, least squares mean ± standard error of the mean corrected by initial weight” value [23] was 2294.4 g.
